Tested on: s.c. 4T1-luc breast tumors
Test: WST11 VTP with or without single dose CTX in mice bearing s.c. 4T1-luc tumors in the hind leg (Scheme 4)
Assay type: in vivo, Balb/c mice
Protocol: • (i) Bacteriochlorophyll Derivatives—The Bchl derivatives and RGD-conjugates thereof were provided by Steba Biotech (Rehovot, Israel). […] Concentration was verified by spectrophotometric measurement. STL-7012 was provided as dipotassium salt. Working solution was prepared by dissolving STL-7012 K^+ salt in 5% mannitol solution (1 mg/ml). […] WST11 was supplied as a powder and kept in the dark at −20° C. Stock was prepared by dissolving WST11 in DDW containing 5% glucose and 0.67% mannitol, aliquoted and lyophilized. Working solution was reconstituted with DDW and the concentration of solution was confirmed spectrophotometrically. Alternatively, Clinical WST11 (batch: P00611, and 10-130611) was supplied as lyophilized formulation. Material was dissolved in 5% dextrose, aliquoted and stored at −20° C. […] Aliquots were thawed, diluted with saline to a desired concentration and used on the same day at a dose of 75 mg/kg. Cyclophosphamide (CTX, Endoxan®, Baxter Oncology Gmbh, Germany) was purchased from a local pharmacy. A stock solution of 20 mg/ml was prepared by dissolving in 0.9% NaCl, aliquoted and stored at −20° C. Aliquots were thawed, diluted with saline if needed to a desired concentration and used on the same day prepared at indicated doses. • (iii) Murine cell lines—Mammary luciferase (luc)-labeled 4T1 cell line (4T1-Luc) was a kind gift from Dr. Zvi Granot (Faculty of Medicine, The Hebrew University of Jerusalem, Israel); melanoma B16-F10 cell line was obtained from the American Type Culture Collection (ATCC, Manassas, Va.); bladder MB49 cell line was a kind gift from James Allison (MSKCC, New York, USA), and luc-labeled MB49-cell line was established using the murine stem cell virus (MSCV)-puromycin-luc-GFP construct (kindly provided by Dr. Emily Cheng, Human Oncology and Pathogenesis Program, MSKCC). 4T1 and MB49 cells were maintained in DMEM medium and B16-F10 cells in RPMI medium supplemented with 1 mmol/L sodium pyruvate, 10% fetal calf serum (FCS), 250 μg/ml hygromycin, 0.06 mg/ml penicillin and 0.1 mg/ml streptomycin. The cells were grown as monolayer at 37° C. in a humidified atmosphere (5% CO2, 95% air). • (iv) Murine tumor models—Female, Balb/c mice (6-8 week old) were grafted either subcutaneously (s.c.) into the right hind leg or orthotopically with 1×10^6 4T1 cells suspended in 50 or 1000 PBS. […] Whole body imaging of luciferase-transfected tumors and metastases were recorded five minutes following 75 mg Kg^−1 intraperitoneal (i.p.) injection of D-luciferin with respective filter sets. • (vi) PDT treatment protocol: 4T1-Luc cells were grafted in the mammary pad of Balb/c mice. […] Ablation of primary tumors was assessed every 7 days by imaging the tumor's luciferase-mediated bioluminescence signal, using IVIS.

In the case of `CCC1c2cc3[n-]c(c(CC(=O)OC)c4nc(cc5[n-]c(cc(n2)C1C)c(C(C)=O)c5C)C(C)C4CCC(=O)[O-])c(C(=O)NCCS(=O)(=O)[O-])c3C.[K+].[K+].[Pd+2]` (stereo not drawn) [WST11, Palladium 3^1-oxo-15-methoxycarbonylmethyl-rhodobacteriochlorin 13^1-(2-sulfoethyl) amide dipotassium salt], the primary tumor growth (CTX 50 or 150 mg/kg alone, WST11 VTP at low light intensity (100 mW/cm^2) alone, or combination) is reported as “unable to suppress primary tumor growth”, the lung metastases (VTP alone, even when primary tumor completely ablated) is reported as “most of the mice subjected to VTP alone developed lung metastases” and the “time to tumor regrowth” value (WST11 VTP at high light dose (150 mW/cm^2)) is reported as “doubled”.
